Assay results reported in the supplement of paper PMC4862054.

Assays:
Settings in all cases: 72 h
[1] = system: HCC1599
Summary of the method: (§1)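 The reported EC50 was fitted from percent-inhibition dose-response curves and censored at the highest concentration. Breast cancer cell lines (20 µl suspension) were added to 384-well plates containing compound in 5 µl medium and incubated 72 h, and viability was read with 2.5 µl CellTiter-Blue over 2 h at 37 °C at 560/590 nm. Each plate was normalised to vehicle and a positive kill control and checked by Z'-factor, and rows with zero drug sensitivity score were dropped.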

[2] = system: BT-474
Summary of the method: (§2)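 Two sequential readouts followed a 72 h incubation of breast cancer cell lines with compound at 5 concentrations in 10-fold steps over a compound-specific 10,000-fold range: CellTox Green fluorescence (485/520 nm) for cell death, then CellTiter-Glo luminescence, after 10 min at room temperature, for viability. Each plate was normalised to 0.1 % DMSO and a positive kill control. Dose-response curves were fitted for EC50, censored at the top concentration.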

[3] = system: BT-549
Summary of the method: as §2

[4] = system: CAL-120
Summary of the method: as §2

[5] = system: CAL-148
Summary of the method: as §2

[6] = system: CAL-51
Summary of the method: as §2

[7] = system: CAL-85-1
Summary of the method: as §2

[8] = system: DU-4475
Summary of the method: as §2

[9] = system: HCC1143
Summary of the method: as §2

[10] = system: HCC1937
Summary of the method: as §2

[11] = system: HDQ-P1
Summary of the method: as §2

[12] = system: Hs578T
Summary of the method: as §2

[13] = system: MDA-MB-436
Summary of the method: as §2

[14] = system: MDA-MB-453
Summary of the method: as §2

[15] = system: MDA-MB-468
Summary of the method: as §2

[16] = system: MFM-223
Summary of the method: as §2

[17] = system: SK-BR-3
Summary of the method: as §2

[18] = system: CAL-148; remark: listed apart in the source
Summary of the method: as §1

[19] = system: CAL-51; remark: listed apart in the source
Summary of the method: as §1

[20] = system: CAL-85-1; remark: listed apart in the source
Summary of the method: as §1

[21] = system: DU-4475; remark: listed apart in the source
Summary of the method: as §1

[22] = system: HDQ-P1; remark: listed apart in the source
Summary of the method: as §1

[23] = system: MDA-MB-453; remark: listed apart in the source
Summary of the method: as §1

[24] = system: BT-549; remark: listed apart in the source
Summary of the method: as §1

[25] = system: CAL-120; remark: listed apart in the source
Summary of the method: as §1

[26] = system: HCC1143; remark: listed apart in the source
Summary of the method: as §1

[27] = system: HCC1937; remark: listed apart in the source
Summary of the method: as §1

[28] = system: Hs578T; remark: listed apart in the source
Summary of the method: as §1

[29] = system: MDA-MB-468; remark: listed apart in the source
Summary of the method: as §1

[30] = system: MFM-223; remark: listed apart in the source
Summary of the method: as §1

[31] = system: SK-BR-3; remark: listed apart in the source
Summary of the method: as §1

[32] = system: HCC1937; remark: listed apart in the source
Description: (§3)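 Drug sensitivity and resistance testing (DSRT) of breast cancer cell lines in 384-well plates, 5 concentrations in 10-fold dilutions over a compound-specific 10,000-fold range. After 72 h, cytotoxicity was read by CellTox Green fluorescence and viability by CellTiter-Glo luminescence (multiplexed), normalised to DMSO and benzethonium chloride controls. EC50 is the inflection point of the fitted dose-response curve (bottom asymptote free, so it can be relative for partial curves) and is censored at the highest tested concentration. Rows with DSS 0 (no meaningful response) were excluded.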

[33] = system: HCC1599; remark: listed apart in the source
Summary of the method: as §2

[34] = system: MCF-10A
Summary of the method: as §2

[35] = system: MDA-MB-231
Summary of the method: as §2

[36] = system: BT-474; remark: listed apart in the source
Summary of the method: as §1

[37] = system: MDA-MB-231; remark: listed apart in the source
Summary of the method: as §1

[38] = system: BT-549; remark: listed apart in the source
Description: as §3

[39] = system: CAL-51; remark: listed apart in the source
Description: as §3

[40] = system: CAL-85-1; remark: listed apart in the source
Description: as §3

[41] = system: HCC1143; remark: listed apart in the source
Description: as §3

[42] = system: HDQ-P1; remark: listed apart in the source
Description: as §3

[43] = system: Hs578T; remark: listed apart in the source
Description: as §3

[44] = system: MCF-10A; remark: listed apart in the source
Description: as §3

[45] = system: MDA-MB-231; remark: listed apart in the source
Description: as §3

[46] = system: MFM-223; remark: listed apart in the source
Description: as §3

[47] = system: CAL-120; remark: listed apart in the source
Description: as §3

[48] = system: MDA-MB-436; remark: listed apart in the source
Summary of the method: as §1

[49] = system: CAL-148; remark: listed apart in the source
Description: as §3

[50] = system: MDA-MB-436; remark: listed apart in the source
Description: as §3

O=C(O)CC[C@H]1CC[C@@](c2cc(F)ccc2F)(S(=O)(=O)c2ccc(Cl)cc2)CC1 [MK-0752] was tested, and the “EC50, CellTiter-Blue viability” value [1] was 70.2 nM.
With CO[C@H]1C[C@@H]2CC[C@@H](C)[C@@](O)(O2)C(=O)C(=O)N2CCCC[C@H]2C(=O)O[C@H]([C@H](C)C[C@@H]2CC[C@@H](O)[C@H](OC)C2)CC(=O)[C@H](C)/C=C(\C)[C@@H](O)[C@@H](OC)C(=O)[C@H](C)C[C@H](C)/C=C/C=C/C=C/1C [Sirolimus] the “EC50, CellTiter-Glo” value [2] was 3.4 nM, the “EC50, CellTiter-Glo” value [3] was 1.85 nM and the “EC50, CellTiter-Glo” value [4] was 3.4 nM. The “EC50, CellTiter-Glo” value [5] was 3.6 nM, the “EC50, CellTiter-Glo” value [6] was 2.33 nM and the “EC50, CellTiter-Glo” value [7] was 0.95 nM. For the same molecule, the “EC50, CellTiter-Glo” value [8] was 16.1 nM, the “EC50, CellTiter-Glo” value [9] was 3.09 nM and the “EC50, CellTiter-Glo” value [10] was 6.4 nM. The “EC50, CellTiter-Glo” value [11] was 7.92 nM, the “EC50, CellTiter-Glo” value [12] was 1.24 nM and the “EC50, CellTiter-Glo” value [13] was 2.96 nM. The “EC50, CellTiter-Glo” value [14] was 4.84 nM, the “EC50, CellTiter-Glo” value [15] was 0.65 nM and the “EC50, CellTiter-Glo” value [16] was 3.87 nM. The “EC50, CellTiter-Glo” value [17] was 4.12 nM, the “EC50, CellTiter-Blue viability” value [18] was 1.13 nM and the “EC50, CellTiter-Blue viability” value [19] was 0.79 nM. For the same molecule, the “EC50, CellTiter-Blue viability” value [20] was 0.46 nM, the “EC50, CellTiter-Blue viability” value [21] was 1.24 nM and the “EC50, CellTiter-Blue viability” value [22] was 0.55 nM. For the same molecule, the “EC50, CellTiter-Blue viability” value [23] was 0.71 nM, the “EC50, CellTiter-Blue viability” value [24] was 0.2 nM and the “EC50, CellTiter-Blue viability” value [25] was 1.32 nM. For the same molecule, the “EC50, CellTiter-Blue viability” value [26] was 1.33 nM, the “EC50, CellTiter-Blue viability” value [1] was 1.57 nM and the “EC50, CellTiter-Blue viability” value [27] was 0.16 nM. The “EC50, CellTiter-Blue viability” value [28] was 0.14 nM, the “EC50, CellTiter-Blue viability” value [29] was 0.26 nM and the “EC50, CellTiter-Blue viability” value [30] was 0.18 nM. For the same molecule, the “EC50, CellTiter-Blue viability” value [31] was 3.42 nM and the “EC50, CellTox Green” value [32] was 98.7 nM.
In the case of CC[C@@H]1C(=O)N(C)c2cnc(Nc3ccc(C(=O)N[C@H]4CC[C@H](N5CCN(CC6CC6)CC5)CC4)cc3OC)nc2N1C(C)C [Volasertib], the “EC50, CellTiter-Glo” value [2] is reported as 7.02 nM, the “EC50, CellTiter-Glo” value [3] is reported as 20.4 nM and the “EC50, CellTiter-Glo” value [4] is reported as 46.6 nM. The “EC50, CellTiter-Glo” value [5] was 8.07 nM, the “EC50, CellTiter-Glo” value [6] was 16.9 nM and the “EC50, CellTiter-Glo” value [7] was 8.51 nM. The “EC50, CellTiter-Glo” value [8] was 25.4 nM, the “EC50, CellTiter-Glo” value [9] was 22.5 nM and the “EC50, CellTiter-Glo” value [33] was 64.5 nM. For the same molecule, the “EC50, CellTiter-Glo” value [10] was 82.3 nM, the “EC50, CellTiter-Glo” value [11] was 53.1 nM and the “EC50, CellTiter-Glo” value [12] was 76.9 nM. For the same molecule, the “EC50, CellTiter-Glo” value [34] was 33.2 nM, the “EC50, CellTiter-Glo” value [35] was 9.75 nM and the “EC50, CellTiter-Glo” value [13] was 3.59 nM. The “EC50, CellTiter-Glo” value [14] was 0.7 nM, the “EC50, CellTiter-Glo” value [15] was 6.98 nM and the “EC50, CellTiter-Glo” value [16] was 4.62 nM. The “EC50, CellTiter-Glo” value [17] was 8.82 nM, the “EC50, CellTiter-Blue viability” value [18] was 11.6 nM and the “EC50, CellTiter-Blue viability” value [19] was 24.8 nM. For the same molecule, the “EC50, CellTiter-Blue viability” value [20] was 10.4 nM, the “EC50, CellTiter-Blue viability” value [21] was 24.7 nM and the “EC50, CellTiter-Blue viability” value [22] was 379 nM. For the same molecule, the “EC50, CellTiter-Blue viability” value [23] was 6.23 nM, the “EC50, CellTiter-Blue viability” value [36] was > 1000 nM and the “EC50, CellTiter-Blue viability” value [24] was 23.5 nM. For the same molecule, the “EC50, CellTiter-Blue viability” value [25] was 5.21 nM, the “EC50, CellTiter-Blue viability” value [26] was 13.8 nM and the “EC50, CellTiter-Blue viability” value [27] was 11.1 nM. For the same molecule, the “EC50, CellTiter-Blue viability” value [28] was 36.8 nM, the “EC50, CellTiter-Blue viability” value [37] was 20.4 nM and the “EC50, CellTiter-Blue viability” value [29] was 13.7 nM. The “EC50, CellTiter-Blue viability” value [30] was 1.6 nM, the “EC50, CellTiter-Blue viability” value [31] was 8.58 nM and the “EC50, CellTox Green” value [38] was 68.5 nM. For the same molecule, the “EC50, CellTox Green” value [39] was 20.7 nM, the “EC50, CellTox Green” value [40] was 3.2 nM and the “EC50, CellTox Green” value [41] was 49.1 nM. For the same molecule, the “EC50, CellTox Green” value [32] was 0.49 nM, the “EC50, CellTox Green” value [42] was 17.9 nM and the “EC50, CellTox Green” value [43] was 120 nM. For the same molecule, the “EC50, CellTox Green” value [44] was 2.53 nM, the “EC50, CellTox Green” value [45] was 3.18 nM and the “EC50, CellTox Green” value [46] was 0.83 nM.
CC(C)(C)Cn1c(N)nc2ccc(-c3[nH]c(C(C)(C)C)nc3-c3ccc(F)cc3)nc21 was tested, and the “EC50, CellTiter-Glo” value [2] was > 10000 nM, the “EC50, CellTiter-Glo” value [3] was 3340 nM and the “EC50, CellTiter-Glo” value [4] was > 10000 nM. The “EC50, CellTiter-Glo” value [34] was 4590 nM, the “EC50, CellTiter-Glo” value [14] was 1910 nM and the “EC50, CellTiter-Glo” value [15] was 6760 nM. The “EC50, CellTiter-Glo” value [16] was 3110 nM, the “EC50, CellTiter-Glo” value [17] was 3050 nM and the “EC50, CellTox Green” value [47] was > 10000 nM.
For Cc1c(N)nc([C@H](CC(N)=O)NC[C@H](N)C(N)=O)nc1C(=O)N[C@H](C(=O)N[C@H](C)[C@@H](O)[C@H](C)C(=O)N[C@H](C(=O)NCCc1nc(-c2nc(C(=O)NCCC[S+](C)C)cs2)cs1)[C@@H](C)O)[C@@H](OC1OC(CO)C(O)C(O)C1OC1OC(CO)C(O)C(OC(N)=O)C1O)c1cnc[nH]1 (stereo not given in full) [Bleomycin], the “EC50, CellTiter-Glo” value [3] was 2360 nM, the “EC50, CellTiter-Glo” value [5] was 911 nM and the “EC50, CellTiter-Glo” value [6] was 49.9 nM. For the same molecule, the “EC50, CellTiter-Glo” value [9] was 9670 nM, the “EC50, CellTiter-Glo” value [10] was 8710 nM and the “EC50, CellTiter-Glo” value [13] was 5920 nM. The “EC50, CellTiter-Glo” value [17] was 1830 nM, the “EC50, CellTiter-Blue viability” value [19] was 9960 nM and the “EC50, CellTiter-Blue viability” value [24] was 16.4 nM. For the same molecule, the “EC50, CellTiter-Blue viability” value [25] was 582 nM, the “EC50, CellTiter-Blue viability” value [26] was 201 nM and the “EC50, CellTiter-Blue viability” value [27] was 767 nM. The “EC50, CellTiter-Blue viability” value [28] was 69.2 nM, the “EC50, CellTiter-Blue viability” value [37] was 109 nM and the “EC50, CellTiter-Blue viability” value [48] was 7330 nM. The “EC50, CellTox Green” value [49] was 396 nM, the “EC50, CellTox Green” value [39] was 20.5 nM and the “EC50, CellTox Green” value [50] was 7500 nM.
